Data published in patent US9023354B2, “Combination therapy with MDM2 and EFGR inhibitors” (priority 2010, dated 2015).
Read-outs that look alike come from different tables or passages of the source.

Key:
[1] = Stability toward liver microsome incubation; format: in vitro ADME
[2] = test system: apoptosis-related proteins in A549 cells; test: Proteome profile of apoptosis-related proteins; format: cell-based, human; conditions: 5 μM
Description: This example describes an assay that measured the relative expression levels of 35 apoptosis-related proteins in a single sample of whole cell extract. Methods are according to Examples 1-2 unless otherwise specified.
The protocol and reagents were purchased from R&D systems (Human apoptosis array kit; cat. #ARY009). The kit consisted of an antibody array spotted on nitrocellulose membranes with each specific antibody printed in duplicate. The detection antibodies were biotinylated so they could be used with a streptavidin-HRP conjugate designed for chemiluminescent imaging. The protocol was modified to utilize the LiCor infrared imaging technology by substituting an infrared 680 nm-tagged streptavidin.
The following day, two μl of compound dilutions in 100% DMSO were added to the appropriate wells resulting in a final concentration of 5 μM. The plates were then incubated for 6 hours at 37° C., 5% CO2, and 85% relative humidity. Following incubation, the cells were washed with 2 ml of PBS, then lysed with 500 μl/well of Lysis buffer, supplemented with a 1/200 dilution of mammalian protease inhibitor cocktail (Sigma Aldrich). The plates were shaken for 30 min at room temperature, spun @ 14,000×g for 5 minutes. 250 μl of the supernatant was removed and added to 1.25 ml of Assay buffer 1. The supernatant and Assay buffer 1 were incubated with membranes overnight at room temperature with shaking.
The following day, the membranes were washed 3 times for 10 min each, with 1× wash buffer in individual 50 ml Falcon tubes at room temperature with rotation. The membranes were incubated with a 1/100 dilution of biotinylated detection antibodies for 3 hours at room temperature with shaking.
The membranes were washed, then incubated with a 1/1000 dilution of IR 680 nm-labeled streptavidin (LiCor) for 60 minutes with shaking in the dark. The membranes were again washed. Excess buffer was blotted from membranes, placed between two pieces of transparent plastic and imaged on the LiCor infrared imager. The LiCor Odyssey software is used to quantitate the pixel intensity of each spot in the array.
First, several compounds were evaluated in a proteome profiling array system containing antibodies to 35 apoptosis-related proteins. In this assay (see Example 3), the relative expression levels of these proteins in cell extracts are measured from treated and non-treated A549 cells.

[3] = test system: A549 cells; test: DNA fragmentation (Cell Death Detection ELISA), measurement of apoptosis; conditions: for activation at 1 µM / activation at 10 µM: Homo sapiens
Experimental: The plates were allowed to incubate overnight @ 37° C., 5% CO2. On day 2, the media was removed from the plates and 160 μl media containing 5% FBS was added. 40 μl of media-containing test compound in 100% DMSO (prepared at 5× the dosing concentration) was added to the existing media resulting in a final DMSO concentration of 0.5%. Cells were incubated in the presence of a compound for 24 hrs @ 37° C., 5% CO2.
After 24 hrs, the abovementioned plates were centrifuged at 200×g for 10 min. The media was removed by gently inverting the plate and disposing of the media onto a paper towel. The plates were tapped gently to remove excess media. 200 μl lysis buffer was added to each well, and mixed by shaking at 300 rpm. The plates were incubated at room temperature for 30 min. The plates were centrifuged at 200×g for 10 min and 20 μl of lysis supernatant was removed for use in ELISA analysis to detect cell death.
20 μl of the cell lysis supernatant was placed into streptavidin-coated plates with 20 μl positive control and 20 μl incubation buffer negative control. Add 80 μl Immunoreagent (for DNA fragment detection) to each well. The wells were covered with foil adhesive and shaken at 300 rpm for 2 h at room temperature. The supernatant solution was removed and the wells were washed 3 times with 300 μl incubation buffer. 100 μl of ABTS detection substrate was added to each well. The wells were incubated on a plate shaker at 250 rpm for approximately 10-20 min. 100 μl ABTS of stop buffer was then added. […] The absorbance measures the colored product spectrophotometrically, correlating with apoptosis.
The percent increase in DNA fragmentation produced by compounds at a concentration of 1 and 10 μM were compared to background, and to the response produced by 500 nM staurosporin.

[4] = test system: A431 cells; test: A431 cell proliferation assay (MTT), alone and in combination with Tarceva; format: cell-based; conditions: for A431 Cell Proliferation CI Value: combination with Tarceva, CI <0.8 indicates synergy
Experimental: This example describes an assay that measures the ability of compounds to inhibit the proliferation of cultured cells. This assay can also be used to assess whether combining two or more compounds produces additive, synergistic, or antagonistic effects on cell growth.
On day 1, the cells were seeded at 10^3 cells per well in 100 μl of complete media under standard conditions.
On day 2, the cells were washed and 100 μl serum free media was added. The cells were then incubated for at least 2 hours before the addition of compound(s). 20 μl of compound(s) was added to the respective wells and incubated at 37° C., 5% CO2 for 72 hrs.
On day 5, 50 μl of the MTT dye solution was added to each well. The plates were incubated at 37° C., 5% CO2 for 1 hr. The media was then aspirated and the cells were resuspended in […] of DMSO. The plates were allowed to incubate for 5 min at room temperature with gentle shaking.
The absorbance in each well was determined at 560 nm using a Polarstar plate reader.
The A431 cell line over-expresses the EGF receptor, and was utilized to assess the ability of AD4 compounds to inhibit EGF-mediated cell proliferation.

[5] = molecular target: p53/MDM2 binding (Homo sapiens (Human), UniProt Q00987); test: AlphaScreen measurement of p53/MDM2 interaction (truncated GST-MDM2 aa 1-150)
Experimental: The following example describes an assay that measured the ability of compounds to inhibit the binding of p53 to MDM2 using the AlphaScreen assay technology (PerkinElmer). […] Recombinant, truncated, human, N-terminal GST-MDM2 (aa 1-150) was obtained from GeneScript. Wild-type, full length human N-terminal 6-his p53 was purchased from SignalChem.
Resulting in a final reaction volume of 24 μl PBS, 0.1% Tween-20, and 10% glycerol, 30 ng of MDM2 was added, followed by the addition of 10 of compound diluted in 100% DMSO that provided a final DMSO concentration of 4%. 30 ng of p53 was then added, mixed, and incubated at room temperature for 1 hour. Glutathione donor beads and Nickel acceptor beads (0.5 μg each; PerkinElmer) were added under subdued lighting conditions to a final reaction volume of 30 μl/well in a 96 well, ½ volume Proxima plate. The reaction was incubated at room temperature with shaking for 18 hrs in the dark. Analysis was then performed on a PerkinElmer EnSpire plate reader to determine the ability of compounds to inhibit the binding of p53 to MDM2.

[6] = test system: A431 cells; test: Caspase 3/7 activity, measurement of apoptosis; format: cell-based; conditions: 10 μM compared to 10 μM Tarceva
[7] = test system: p53 and phospho-p53 (S15) in A549 NSCLC cells; test: p53 In-Cell Western; format: cell-based, human; conditions: about 1-3 μM
[8] = A549, read-out: % Inc. Relative to Staurosporin (500 nM), DNA fragmentation
[9] = A549, read-out: % Inc. over Background, DNA fragmentation
[10] = A431 cells, further studies, Example 9, Table 7A, read-out: A431 Cell Proliferation (IC50 Value)
[11] = A431 cells, preliminary assessment, Example 8, Table 6A, read-out: A431 Cell Proliferation (IC50)
[12] = Table 7C, read-out: p53/MDM2 IC50 Value
[13] = Homo sapiens, A-431, A431 cells, further studies, Example 9, Table 7A, read-out: A431 Cell Proliferation (IC50 Value)

Chain of p53/MDM2 binding (Q00987 1-150): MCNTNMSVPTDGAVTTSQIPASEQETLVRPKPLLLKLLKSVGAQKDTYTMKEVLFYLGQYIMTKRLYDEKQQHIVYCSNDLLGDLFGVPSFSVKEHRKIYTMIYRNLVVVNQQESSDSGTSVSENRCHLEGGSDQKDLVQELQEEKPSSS

| SMILES | stability (toward liver microsome incubation) [1] | phosphorylated forms of p53 [2] | activation at 10 µM [3, 8] | activation at 1 µM [3, 9] | activation at 10 µM [3, 9] | IC50 [4, 10] | A431 Cell Proliferation CI Value ([4]; Example 9, Table 7B) | other results |
| --- | --- | --- | --- | --- | --- | --- | --- | --- |
| Cc1nc(NC(c2ccc(Cl)cc2Cl)c2ccc3cccnc3c2O)c(Cl)cc1Cl (stereo not shown) [AD4-13206] | increased stability |  |  |  |  |  |  |  |
| Cc1cc(Cl)cnc1NC(c1ccc(Cl)c(F)c1)c1ccc2cccnc2c1O (stereo not shown) [AD4-13229] |  | increased all three phosphorylated forms of p53 | 84% | 531% | 667% |  |  | activation at 1 µM [3, 8]: 68% |
| Oc1c(C(Nc2cc(Cl)c(Cl)cn2)c2ccc(Cl)cc2Cl)ccc2cccnc12 (stereo not shown) [AD4-13178] |  | increased all three phosphorylated forms of p53 | 68% | 395% | 581% |  |  |  |
| Cc1ccc2c(C)nc(Nc3nc(-c4ccccc4C)cc(=O)[nH]3)nc2c1 [AD4-11511] |  |  |  |  |  | 1000 nM | 0.89 | IC50 [4, 11]: 1000 nM; A431 Cell Proliferation CI Value ([4]; Example 8, Table 6B): 0.89; IC50 [5, 12]: 4300 nM |
| Oc1c(C(Nc2ccccn2)c2ccccc2Cl)ccc2cccnc12 (stereo not shown) [AD4-10482] |  |  |  |  |  | 3600 nM | 0.89 | Caspase 3/7 activity % Increase Relative to Tarceva [6]: 21%; IC50 [4, 11]: 3600 nM; A431 Cell Proliferation CI Value ([4]; Example 8, Table 6B): 0.54; IC50 [5, 12]: 18000 nM; IC50 ([5]; Table 9, read-out: Inhibition of p53/MDM2 Binding IC50 Value): 18000 nM |
| Cc1cc(Cl)cnc1NC(c1ccc(C(F)(F)F)cc1F)c1ccc2cccnc2c1O (stereo not shown) [AD4-13042] | increased stability |  |  |  |  |  | 0.81 | IC50 [4, 13]: 2200 nM |
| CCc1cc(Cl)cnc1NC(c1ccc(Cl)cc1)c1ccc2cccnc2c1O (stereo not shown) [AD4-13225] |  | increased all three phosphorylated forms of p53 | 42% | 508% | 458% |  |  | activation at 1 µM [3, 8]: 48% |
| Cc1cc(Cl)cnc1NC(c1ccc2cccnc2c1O)c1c(F)c(F)c(OCC(F)(F)F)c(F)c1F (stereo not shown) [AD4-13243] |  | increased all three phosphorylated forms of p53 |  |  |  | 2200 nM |  | DNA fragmentation / apoptosis (in words) ([3]; A549 cells): increased DNA fragmentation; % Inc. over Background, DNA fragmentation ([3]; A549 cells, 1 μM): 551%; % Inc. over Background, DNA fragmentation ([3]; A549 cells, 10 μM): 716%; S15p-p53 (phosphorylated S15 p53) [7]: significantly increased; total p53 expression [7]: significantly increased |
| Cc1cc(Cl)cnc1NC(c1ccc(C(F)(F)F)cc1)c1ccc2cccnc2c1O (stereo not shown) [AD4-13041] | increased stability over AD4-10628 |  |  |  |  |  | 0.69 | IC50 [4, 13]: 2000 nM |
